According to patent US20110112100A1, “Hepatitis C Virus Inhibitors” (priority 2009, published 2011):
Where a name gives a salt, the structure may show the parent alone. Read-outs that look alike come from different tables or passages of the source.

Assays:
[1] = tested on: 1a-H77 replicon cells; experiment: HCV 1a replicon inhibitory activity (Renilla luciferase); format: cell-based, hepatitis C virus; settings: read-out: IC50 value (95% Confidence Intervals) pM Replicon 1A assay
How it was run: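 Replicon cells in DMEM + 10% FCS incubated 48 hours at 37° C., 5% CO2 with 1-in-3 serial dilutions of compound prepared in DMSO. Replication read as Renilla luciferase luminescence after lysis. EC50 taken from log concentration-response curves.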

[2] = tested on: 1b (con1) replicon cells; experiment: HCV 1b replicon inhibitory activity (luciferase, Britelite Plus); format: cell-based, hepatitis C virus; settings: read-out: IC50 value (95% Confidence Intervals) pM Replicon 1B assay
How it was run: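 1b (con1) luciferase replicon cells in DMEM + 10% FCS were exposed to 1-in-3 DMSO compound dilutions for 48 h at 37° C, 5% CO2. Luminescence was read 1-15 min after Britelite Plus addition; EC50 came from log concentration-response curves.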

[3] = Compound induced cytotoxicity in HCV replicon cell lines (WST-1 reagent); format: cell-based; settings: human, 1b (con1) HCV replicon cells; WST-1, 48 hours; in 1 experiment
Experimental: Test compounds were solubilised to 4 mM in 100% DMSO. Dilutions were made to the desired starting concentration in 100% DMSO and then 1 in 3 dilutions made, again in 100% DMSO. 0.5 μl of each sample was added to 384-well assay plates. White Lumitrac (Greiner) plates were used for the 1a and 1b replicon assays and black, clear bottomed (Greiner) plates were used for the WST-1 cytotoxity assay.
1b (con1) replicon cells were resuspended to a concentration of 1.4×10^5 cells/ml by addition of pre-warmed medium (DMEM+10% FCS). 50 μl of this suspension was added to each well of a 384-well assay plate (Black, clear bottomed, Greiner) already containing 0.5 μl of test compound.
All plates were covered with gas permeable seals and incubated at 37° C., 5% CO2 for 48 hours. After 48 hours, 5 μl WST-1 reagent (Roche, 11 644 807 001) was added to each well and the plate returned to the incubator for 3 hours. After this incubation period absorbance was read at 450 nm on an EnVision (Perkin Elmer) plate reader. The half maximal cytotoxic concentration (CC50) values were calculated for each compound by constructing log concentration-response curves.
All of the exemplified compounds have been screened in a cell proliferation assay (WST-1). A majority have […] in at least 2 independent experiments, the exceptions being the compounds of examples 1, 10, 12, 23, 25, 37, 47, 48, 49, 52, 56, 57, 58, 60, 67, 68, 69, 70, 71, 72, 73, 74, 79, 81 and 84 which have CC50 values>2 μM in 1 experiment, and example 20 where the CC50 is reported as >10 nM (in this instance the top concentration tested in the assay was 10 nM).

[4] = Hepatitis C virus, geometric mean, 95% confidence intervals in parentheses, 48 hours, medium with 10% FCS
[5] = geometric mean, 95% confidence intervals in parentheses, 48 hours, medium with 10% FCS

| Structure (SMILES) | IC50 [1, 4] [pM] | IC50 [2, 4] [pM] | other results |
| --- | --- | --- | --- |
| COC(=O)N[C@H](C(=O)N1CCC[C@H]1c1ncc(-c2ccc(-c3ccc4cc(-c5cnc([C@@H]6CCCN6C(=O)[C@@H](NC(=O)OC)C(C)C)[nH]5)cnc4c3)nc2)[nH]1)C(C)C [Example 10, Methyl {(2S)-1-[(2S)-2-{5-[6-(3-{2-[(2S)-1-{(2S)-2-[(methoxycarbonyl)amino]-3-methyl-butanoyl}pyrrolidin-2-yl]-1H-imidazol-5-yl}quinolin-7-yl)pyridin-3-yl]-1H-imidazol-2-yl}pyrrolidin-1-yl]-3-methyl-1-oxobutan-2-yl}carbamate] | 1320 | 49.4 | CC50 at 48 h [3]: > 2000 nM |
| COC(=O)N[C@H](C(=O)N1CCC[C@H]1c1nc(-c2ccc(-c3cnc4cc(-c5cnc([C@@H]6CCCN6C(=O)[C@H](Cc6ccccc6)NC(C)=O)[nH]5)ccc4n3)cc2)c[nH]1)C(C)C [Example 47, Methyl {(2S)-1-[(2S)-2-{4-[4-(6-{2-[(2S)-1-(N-acetyl-L-phenylalanyl)pyrrolidin-2-yl]-1H-imidazol-5-yl}quinoxalin-2-yl)phenyl]-1H-imidazol-2-yl}pyrrolidin-1-yl]-3-methyl-1-oxobutan-2-yl}carbamate trifluoroacetic acid salt] |  |  | IC50 ([1]; Hepatitis C virus, 48 h): 6850 pM; IC50 ([2]; Hepatitis C virus, 48 h): 52.8 pM; CC50 at 48 h [3]: > 2000 nM |
| COC(=O)N[C@H](C(=O)N1CCC[C@H]1c1nc(-c2ccc(-c3cnc4cc(-c5cnc([C@@H]6CCCN6C(=O)[C@@H](COC(C)(C)C)NC(=O)OC)[nH]5)ccc4n3)cc2)c[nH]1)C(C)C [Example 76, Methyl {(2S)-1-[(2S)-2-{4-[4-(6-{2-[(2S)-1-{(2R)-3-tert-butoxy-2-[(methoxycarbonyl)amino]propanoyl}pyrrolidin-2-yl]-1H-imidazol-5-yl]quinoxalin-2-yl)phenyl]-1H-imidazol-2-yl}pyrrolidin-1-yl]-3-methyl-1-oxobutan-2-yl}carbamate trifluoroacetic acid salt] |  |  | IC50 ([1]; Hepatitis C virus, 48 h): 157 pM; IC50 ([2]; Hepatitis C virus, 48 h): 58.8 pM |
| COC(=O)N[C@H](C(=O)N1CCC[C@H]1c1ncc(-c2ccc(-c3cnc4cc(-c5cnc([C@@H]6CCCN6C(=O)[C@@H](NC(=O)OC)C(C)C)[nH]5)cnc4n3)cc2)[nH]1)C(C)C [Example 14, Methyl {(2S)-1-[(2S)-2-{5-[3-(4-{2-[(2S)-1-{(2S)-2-[(methoxycarbonyl)amino]-3-methyl-butanoyl}pyrrolidin-2-yl]-1H-imidazol-5-yl}phenyl)pyrido[2,3-b]pyrazin-7-yl]-1H-imidazol-2-yl}pyrrolidin-1-yl]-3-methyl-1-oxobutan-2-yl}carbamate] | 882 | 189 |  |
| COC(=O)N[C@H](C(=O)N1CCC[C@H]1c1nc(-c2ccc(-c3nc4ccc(-c5c[nH]c([C@@H]6CCCN6C(=O)[C@@H](NC(=O)OC)C(C)C)n5)cc4nc3O)cc2)c[nH]1)C(C)C [Example 18, Methyl {(2S)-1-[(2S)-2-{4-[4-(3-hydroxy-6-{2-[(2S)-1-{(2S)-2-[(methoxycarbonyl)amino]-3-methylbutanoyl}pyrrolidin-2-yl]-1H-imidazol-4-yl}quinoxalin-2-yl)phenyl]-1H-imidazol-2-yl}pyrrolidin-1-yl]-3-methyl-1-oxobutan-2-yl}carbamate] | 536 | 35.8 |  |
| CCOc1nc(-c2ccc(-c3cnc([C@@H]4CCCN4C(=O)[C@@H](NC(=O)OC)C(C)C)[nH]3)cc2)nc2ccc(-c3cnc([C@@H]4CCCN4C(=O)[C@@H](NC(=O)OC)C(C)C)[nH]3)cc12 [Example 16, Methyl {(2S)-1-[(2S)-2-{5-[4-(4-ethoxy-6-{2-[(2S)-1-{(2S)-2-[(methoxycarbonyl)amino]-3-methylbutanoyl}pyrrolidin-2-yl]-1H-imidazol-5-yl}quinazolin-2-yl)phenyl]-1H-imidazol-2-yl}pyrrolidin-1-yl]-3-methyl-1-oxobutan-2-yl}carbamate] | 35.3 | 5.28 |  |
| COC(=O)N[C@H](C(=O)N1CCC[C@H]1c1nc(-c2ccc(-c3cnc4cc(-c5cnc([C@@H]6CCCN6C(=O)CNC(=O)c6[nH]nc7ccccc67)[nH]5)ccc4n3)cc2)c[nH]1)C(C)C [Example 44, Methyl {(2S)-1-[(2S)-2-(4-{4-[6-(2-{(2S)-1-[N-(2H-indazol-3-ylcarbonyl)glycyl]pyrrolidin-2-yl}-1H-imidazol-5-yl)quinoxalin-2-yl]phenyl}-1H-imidazol-2-yl)pyrrolidin-1-yl]-3-methyl-1-oxobutan-2-yl} carbamate trifluoroacetic acid salt] |  |  | IC50 [1, 5]: 3510 pM; IC50 [2, 5]: 100 pM |
| COC(=O)N[C@H](C(=O)N1CCC[C@H]1c1ncc(-c2ccc3cc(-c4cnc(-c5cnc([C@@H]6CCCN6C(=O)[C@@H](NC(=O)OC)C(C)C)[nH]5)cn4)ccc3c2)[nH]1)C(C)C [Example 24, Methyl {(2S)-1-[(2S)-2-{5-[6-(5-{2-[(2S)-1-{(2S)-2-[(methoxycarbonyl)amino]-3-methylbutanoyl}pyrrolidin-2-yl]-1H-imidazol-4-yl}pyrazin-2-yl)naphthalen-2-yl]-1H-imidazol-2-yl}pyrrolidin-1-yl]-3-methyl-1-oxobutan-2-yl}carbamate] | 19900 | 2010 |  |
| COC(=O)N[C@H](C(=O)N1CCC[C@H]1c1nc(-c2ccc(-c3cnc4cc(-c5cnc([C@@H]6CCCN6C(=O)[C@@H](Cc6ccccc6)NC(=O)OC)[nH]5)ccc4n3)cc2)c[nH]1)C(C)C [Example 62, Methyl {(2R)-1-[(2S)-2-{5-[2-(4-{2-[(2S)-1-{(2S)-2-[(methoxycarbonyl)amino]-3-methylbutanoyl}pyrrolidin-2-yl]-1H-imidazol-4-yl}phenyl)quinoxalin-6-yl]-1H-imidazol-2-yl}pyrrolidin-1-yl]-1-oxo-3-phenylpropan-2-yl}carbamate trifluoroacetic acid salt] |  |  | IC50 ([1]; Hepatitis C virus, 48 h): 2570 pM; IC50 ([2]; Hepatitis C virus, 48 h): 44.1 pM |
| COC(=O)N[C@H](C(=O)N1CCC[C@H]1c1nc(-c2ccc(-c3cnc4cc(-c5cnc([C@@H]6CCCN6C(=O)[C@@H](NC(=O)OC)C(C)C)[nH]5)cnc4c3)cc2)c[nH]1)C(C)C [Example 19, Methyl {(2S)-1-[(2S)-2-{5-[7-(4-{2-[(2S)-1-{(2S)-2-[(methoxycarbonyl)amino]-3-methylbutanoyl}pyrrolidin-2-yl]-1H-imidazol-4-yl}phenyl)-1,5-naphthyridin-3-yl]-1H-imidazol-2-yl}pyrrolidin-1-yl]-3-methyl-1-oxobutan-2-yl}carbamate] | 468 | 38.3 |  |
| COC(=O)N[C@H](C(=O)N1CCC[C@H]1c1ncc(-c2ccc(-c3ccc4cc(-c5cnc([C@@H]6CCCN6C(=O)[C@@H](NC(=O)OC)C(C)C)[nH]5)ncc4c3)cc2)[nH]1)C(C)C [Example 8, Methyl {(2S)-1-[(2S)-2-{5-[4-(3-{2-[(2S)-1-{(2S)-2-[(methoxycarbonyl)amino]-3-methyl-butanoyl}pyrrolidin-2-yl]-1H-imidazol-5-yl}isoquinolin-7-yl)phenyl]-1H-imidazol-2-yl}pyrrolidin-1-yl]-3-methyl-1-oxobutan-2-yl}carbamate] | 91.2 | 20.5 |  |
| COC(=O)N[C@@H](CC(C)C)C(=O)N1CCC[C@H]1c1ncc(-c2ccc3nc(-c4ccc(-c5c[nH]c([C@@H]6CCCN6C(=O)[C@@H](NC(=O)OC)C(C)C)n5)cc4)cnc3c2)[nH]1 [Example 68, Methyl {(2S)-1-[(2S)-2-{5-[2-(4-{2-[(2S)-1-{(2S)-2-[(methoxycarobnyl)amino]-3-methylbutanoyl}pyrrolidin-2-yl]-1H-imidazol-4-yl}phenyl)quinoxalin-6-yl]-1H-imidazol-2-yl}pyrrolidin-1-yl]-4-methyl-1-oxopentan-2-yl}carbamate trifluoroacetic acid salt] |  |  | IC50 [1, 5]: 23.2 pM; IC50 [2, 5]: 8.15 pM |
